In patent publication US11440884B2, “Compounds, salts thereof and methods for treatment of diseases” (ACADIA PHARMACEUTICALS INC., priority 2017, dated 2022):

Biological target: 5-HT2A receptor (Homo sapiens (Human), UniProt P28223)
Assay: Receptor Selection and Amplification (R-SAT) functional antagonist assay;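 further: Read-out is β-galactosidase marker gene activity with ONPG substrate, measured after five days of growth in 96-well plates holding the test compound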
Settings: for 5-HT2a pKi: R-SAT, transfected NIH3T3 cells, guidance: high affinity pKi≥8.4, moderate affinity pKi≥7.7
Method: Receptor Selection and Amplification (R-SAT) Assays. […] For large-scale transfections, cells were transfected for 12-16 h, then trypsinized and frozen in DMSO. Frozen cells were later thawed, plated at 10,000-40,000 cells per well of a 96 well plate that contained a compound according to Formula (I). […] With both methods, cells were then grown in a humidified atmosphere with 5% ambient CO2 for five days. Media was then removed from the plates and marker gene activity was measured by the addition of the b-galactosidase substrate o-nitrophenyl b-D-galactopyranoside (ONPG, in PBS with 5% NP-40). […] All data were analyzed using the computer program XLFit (IDBSm).

Chain of 5-HT2A receptor (P28223 whole entry): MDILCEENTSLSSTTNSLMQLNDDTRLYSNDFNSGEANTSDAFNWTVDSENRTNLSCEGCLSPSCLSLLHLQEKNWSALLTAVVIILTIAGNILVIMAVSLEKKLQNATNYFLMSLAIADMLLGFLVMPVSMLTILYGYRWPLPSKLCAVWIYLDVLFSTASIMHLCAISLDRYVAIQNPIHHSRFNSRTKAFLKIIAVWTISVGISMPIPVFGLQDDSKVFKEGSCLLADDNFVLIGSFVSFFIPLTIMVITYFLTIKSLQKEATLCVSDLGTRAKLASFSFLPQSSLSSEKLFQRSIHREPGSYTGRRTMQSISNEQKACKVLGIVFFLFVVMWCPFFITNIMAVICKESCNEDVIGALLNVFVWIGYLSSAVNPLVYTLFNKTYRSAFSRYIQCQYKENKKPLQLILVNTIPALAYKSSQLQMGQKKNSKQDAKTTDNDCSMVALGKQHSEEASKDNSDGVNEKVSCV

| Compound | Ki [nM] | 5-HT2a pKi |
| --- | --- | --- |
| CC(C)Oc1ccc(COC(=O)N(Cc2ccc(F)cc2)[C@H]2CCN(C)C[C@H]2F)cc1 (racemic) [4a/4b, [4-(propan-2-yloxy)phenyl]methyl N-[(3R,4S)-3-fluoro-1-methylpiperidin-4-yl]-N-[(4-fluorophenyl)methyl]carbamate (4a) and [4-(propan-2-yloxy)phenyl]methyl N-[(3S,4R)-3-fluoro-1-methylpiperidin-4-yl]-N-[(4-fluorophenyl)methyl]carbamate (4b)] | 0.1 | – |
| CCCCOc1ccc(COC(=O)N(Cc2ccc(F)cc2F)C2CCN(C)CC2)cc1 [Compound 40, (4-butoxyphenyl)methyl N-[(2,4-difluorophenyl)methyl]-N-(1-methylpiperidin-4-yl)carbamate] | – | 8.9 |
| CC(C)COc1ccc(CC(=O)N(Cc2ccc(F)cc2OC(F)(F)F)C2CCN(C)CC2)cc1.O=C(O)C(F)(F)F [Compound 51, N-{[4-fluoro-2-(trifluoromethoxy)phenyl]methyl}-N-(1-methyl-piperidin-4-yl)-2-[4-(2-methylpropoxy)phenyl]acetamide; trifluoroacetic acid] | – | 6.7 |
